{"source": "patent US11117869B2", "about": "“Compounds, compositions and methods for treatment of myopia” (Aerie Pharmaceuticals, Inc., priority 2019, dated 2021)", "key": {"[1]": {"test": "Topical eye drop composition (Table 3): allergic symptoms, dry eye, hyperemia, irritation"}, "[2]": {"test": "Topical eye drop composition (Table 3): intraocular pressure", "assay_type": "in vivo"}, "myopia": {"system": "myopia", "test": "Topical eye drop composition (Table 3): myopia progression or onset", "conditions": "drop 2 times per day, human subject"}}, "data": [{"compound": "CN1C2CCC1CC(NC(=O)[C@H](CN)c1ccc(CO)cc1)C2", "note": "(stereo partly drawn) [Compound E20S, (S)-3-amino-2-(4-(hydroxymethyl)phenyl)-N-((1R,3-endo,5S)-8-methyl-8-azabicyclo[3.2.]octan-3-yl)propanamide ditosylate]", "values": [{"measurement": "allergic symptoms", "setting": "[1]; in vivo", "result": "substantially decreases"}, {"measurement": "intraocular pressure", "setting": "[2]", "result": "substantially decreases"}]}, {"compound": "CN1C2CCC1CC(OC(=O)C(CO)c1cccc(Cl)c1)C2", "note": "(centres unmarked) [Compound E21]", "values": [{"measurement": "intraocular pressure", "setting": "[2]", "result": "substantially decreases"}]}, {"compound": "CN1C2CCC1CC(OC(=O)C(C)(CO)c1ccccc1)C2", "note": "(centres unmarked) [Compound E22R]", "values": [{"measurement": "hyperemia, redness and ocular irritation", "setting": "[1]; drop as needed", "result": "substantially decreases"}]}, {"compound": "CN1C2CCC1CC(NC(=O)C(CO)c1ccccc1)C2", "note": "(centres unmarked) [Compound E23]", "values": [{"measurement": "rate of myopia progression", "setting": "myopia", "result": "substantially decreases"}]}]}
